The NIST ThermoML archive (doi:10.1021/je900732r)

Assay: mn = molality of the nth substance listed, in mol/kg
Conditions: 101 kPa, Liquid; for speed of sound: Pulse-echo method

[Ni+2].[O-][Cl+3]([O-])([O-])[O-].[O-][Cl+3]([O-])([O-])[O-] [nickel perchlorate] + CO
Conditions	mass density, 283.15 K [kg/m3]	mass density, 288.15 K [kg/m3]	mass density, 293.15 K [kg/m3]	mass density, 298.15 K [kg/m3]	mass density, 303.15 K [kg/m3]	mass density, 308.15 K [kg/m3]	mass density, 313.15 K [kg/m3]	speed of sound, 298.15 K [m/s]
m1 = 0.04976	810.894	806.238	801.564	796.875	792.174	787.453	782.702	1108.7
m1 = 0.06138	813.322	808.669	804	799.318	794.619	789.897	785.142	1110.3
m1 = 0.07317	815.812	811.165	806.497	801.821	797.126	792.41	787.658	1111.9
m1 = 0.08448	818.152	813.508	808.845	804.169	799.474	794.767	790.033	1113.4
m1 = 0.09669	820.699	816.056	811.401	806.731	802.044	797.34	792.608	1115.2
m1 = 0.1085	823.23	818.592	813.937	809.271	804.589	799.878	795.147	1116.7
m1 = 0.1208	825.801	821.168	816.518	811.856	807.179	802.481	797.759	1118.3
m1 = 0.1447	830.859	826.231	821.586	816.93	812.261	807.568	802.853	1121.7
m1 = 0.1676	835.774	831.151	826.515	821.865	817.198	812.514	807.813	1124.8
m1 = 0.1901	840.657	836.042	831.412	826.771	822.114	817.44	812.739	1127.8
m1 = 0.2123	845.469	840.858	836.233	831.599	826.95	822.28	817.588	1130.6
m1 = 0.2356	850.636	846.033	841.413	836.783	832.14	827.476	822.785	1134.2

[Co+2].[O-][Cl+3]([O-])([O-])[O-].[O-][Cl+3]([O-])([O-])[O-] [cobalt(II) perchlorate] + CO
Conditions	mass density, 283.15 K [kg/m3]	mass density, 288.15 K [kg/m3]	mass density, 293.15 K [kg/m3]	mass density, 298.15 K [kg/m3]	mass density, 303.15 K [kg/m3]	mass density, 308.15 K [kg/m3]	mass density, 313.15 K [kg/m3]	speed of sound, 298.15 K [m/s]
m1 = 0.04954	810.666	806.009	801.334	796.648	791.945	787.216	782.455	1108.2
m1 = 0.0652	813.871	809.222	804.551	799.871	795.174	790.456	785.712	1110.5
m1 = 0.08043	816.972	812.325	807.661	802.983	798.285	793.568	788.838	1112.6
m1 = 0.09601	820.184	815.542	810.881	806.21	801.517	796.812	792.084	1114.6
m1 = 0.1106	823.205	818.568	813.913	809.247	804.564	799.855	795.128	1116.9
m1 = 0.1255	826.259	821.625	816.975	812.313	807.634	802.929	798.211	1118.6
m1 = 0.157	832.839	828.214	823.572	818.918	814.251	809.557	804.844	1122.7
m1 = 0.1876	839.345	834.726	830.096	825.452	820.793	816.116	811.415	1127
m1 = 0.2171	845.636	841.028	836.402	831.765	827.115	822.438	817.746	1131
m1 = 0.2464	851.879	847.275	842.656	838.024	833.388	828.73	824.046	1135
m1 = 0.2747	858.053	853.458	848.847	844.226	839.592	834.938	830.254	1138.9
m1 = 0.3036	864.446	859.854	855.253	850.642	846.019	841.375	836.709	1143
